Here are results for four compounds from ChEMBL document CHEMBL6177983, “PSMA-Guided PROTAC Degraders for Tumor-Specific Protein Degradation in Prostate Cancer” (J Med Chem, 2025).

The target of series [1] is T1, von Hippel-Lindau disease tumor suppressor/Androgen receptor (Homo sapiens, UniProt P10275+P40337). The series can be described thus: In vivo PROTAC activity at AR/VHL in BALB/c mouse xenografted with human LNCaP cells assessed as reduction in AR level in tumor at 1 mmol/L, iv measured at 48 hrs by Western blot analysis. In kind it is functional, organism-based. (A xenograft is tissue or cells of one species grown in another, often human tumour cells in immunodeficient mice.)
Target sequence in this assay (P10275 whole entry, looked up): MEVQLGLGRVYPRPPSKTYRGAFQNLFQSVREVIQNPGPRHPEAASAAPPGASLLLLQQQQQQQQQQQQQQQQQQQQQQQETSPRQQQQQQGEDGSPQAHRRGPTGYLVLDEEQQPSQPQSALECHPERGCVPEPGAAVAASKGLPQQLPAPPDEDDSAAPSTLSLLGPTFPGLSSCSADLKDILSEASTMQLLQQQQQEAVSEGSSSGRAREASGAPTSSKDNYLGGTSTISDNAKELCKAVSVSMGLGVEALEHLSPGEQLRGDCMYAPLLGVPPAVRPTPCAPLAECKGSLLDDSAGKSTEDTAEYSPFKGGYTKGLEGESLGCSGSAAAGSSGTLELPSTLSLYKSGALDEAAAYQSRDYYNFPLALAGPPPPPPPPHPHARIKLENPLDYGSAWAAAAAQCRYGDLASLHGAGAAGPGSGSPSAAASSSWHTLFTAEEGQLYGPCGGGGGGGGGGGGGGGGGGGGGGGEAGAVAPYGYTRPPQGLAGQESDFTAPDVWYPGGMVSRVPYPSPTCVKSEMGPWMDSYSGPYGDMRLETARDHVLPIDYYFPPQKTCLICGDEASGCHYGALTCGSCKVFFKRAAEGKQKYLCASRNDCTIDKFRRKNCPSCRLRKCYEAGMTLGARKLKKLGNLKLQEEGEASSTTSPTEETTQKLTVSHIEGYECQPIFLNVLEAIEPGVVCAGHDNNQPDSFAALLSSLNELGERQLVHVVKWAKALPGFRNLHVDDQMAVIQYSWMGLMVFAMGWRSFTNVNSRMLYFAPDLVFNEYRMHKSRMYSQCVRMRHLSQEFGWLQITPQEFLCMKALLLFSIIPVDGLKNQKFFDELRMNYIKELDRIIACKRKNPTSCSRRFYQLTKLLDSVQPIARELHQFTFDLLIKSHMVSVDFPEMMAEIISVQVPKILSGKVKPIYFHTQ
Target sequence in this assay (P40337 whole entry, looked up): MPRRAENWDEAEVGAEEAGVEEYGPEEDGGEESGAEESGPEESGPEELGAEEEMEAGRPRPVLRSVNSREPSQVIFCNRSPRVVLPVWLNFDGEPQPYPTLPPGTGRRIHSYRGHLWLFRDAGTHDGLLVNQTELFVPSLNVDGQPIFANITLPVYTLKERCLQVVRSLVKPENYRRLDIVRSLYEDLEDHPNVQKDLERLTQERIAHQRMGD

In series [2] the target is T1, von Hippel-Lindau disease tumor suppressor/Androgen receptor. The series can be described thus: In vivo PROTAC activity at AR/VHL in BALB/c mouse xenografted with human LNCaP cells assessed as reduction in AR level in tumor at 1 mmol/L, iv measured at 72 hrs by Western blot analysis. In kind it is functional, organism-based.
Target sequence in this assay (P10275 whole entry, looked up): as the sequence (P10275 whole entry, looked up) above
Target sequence in this assay (P40337 whole entry, looked up): as the sequence (P40337 whole entry, looked up) above
Series [3] concerns LNCaP. Kind of series: animal or person. The settings on record: Mus musculus, po, 504 h, read-out: TGI.
Description: Antitumor activity against human LNCaP cells xenografted in BALB/c mouse assessed as tumor growth inhibition at 10 mg/kg, po administered every day for 21 days
Series [4] deals with VCaP. Kind of series: Cytotoxicity against human VCaP cells assessed as cell viability incubated for 72 hrs by CCK-8 assay. It counts as functional, cell-based.
Series [5] relates to LNCaP. Kind of series: Cytotoxicity against human LNCaP cells assessed as cell viability incubated for 72 hrs by CCK-8 assay. In kind it is functional, cell-based. A general note: Tetrazolium assays rely on reduction of a dye to a coloured formazan, in cell work by metabolically active cells.
Series [6] concerns CWR22R. The series can be described thus: Cytotoxicity against human 22Rv1 cells assessed as cell viability incubated for 72 hrs by CCK-8 assay. It counts as functional, cell-based.
The subject of series [7] is HEK-293T. The series can be described thus: Cytotoxicity against HEK293T cells assessed as cell viability incubated for 72 hrs by CCK-8 assay. In kind it is toxicity, cell-based. The settings on record: human.
The test system of series [8] is DU-145. Kind of series: Cytotoxicity against human DU-145 cells assessed as cell viability incubated for 72 hrs by CCK-8 assay. In kind it is functional, cell-based.
Series [9] deals with J82. Kind of series: Cytotoxicity against human J82 cells assessed as cell viability incubated for 72 hrs by CCK-8 assay. In kind it is functional, cell-based.
Series [10] concerns LNCaP. Kind of series: Antitumor activity against human LNCaP cells xenografted in BALB/c mouse assessed as tumor growth inhibition at 0.51 mmol/L, iv administered every day for 21 days. The settings on record: 504 h, time 21 day, read-out: TGI. In kind it is functional.
Series [11] deals with LNCaP. Kind of series: Antitumor activity against human LNCaP cells xenografted in BALB/c mouse assessed as tumor growth inhibition at 1.02 mmol/L, iv administered every day for 21 days. In kind it is functional. The settings on record: 504 h, time 21 day, read-out: TGI.
The test system of series [12] is Mus musculus. Kind of series: In vivo PROTAC activity at BRD4/VHL in BALB/c mouse xenografted with human LNCaP cells assessed as reduction in AR level in tumor at 1 mmol/L, iv measured for 3 days by Western blot analysis. The settings on record: time 3.0 day. In kind it is functional, organism-based.
The nature of series [13]: Stability of the compound in PBS buffer measured up to 24 hrs by HPLC analysis. It counts as physicochemical. The settings on record: read-out: Stability.
Series [14] deals with T1, von Hippel-Lindau disease tumor suppressor/Androgen receptor. Kind of series: PROTAC activity at AR/VHL in human LNCaP cells assessed as induction of androgen receptor degradation at 0.03 to 3 uM measured for 12 hrs by Western blot analysis. The settings on record: dose 0.03-3 µM. In kind it is cell-based. (In general: Immunoblotting shows a protein as a band on a membrane.)
Target sequence in this assay (P10275 whole entry, looked up): as the sequence (P10275 whole entry, looked up) above
Target sequence in this assay (P40337 whole entry, looked up): as the sequence (P40337 whole entry, looked up) above

Series [15] shares this target. The series can be described thus: PROTAC activity at AR/VHL in human 22Rv1 cells assessed as induction of androgen receptor degradation at 0.03 to 3 uM measured for 12 hrs by Western blot analysis. The settings on record: dose 0.03-3 µM. It counts as cell-based.
Target sequence in this assay (P10275 whole entry, looked up): as the sequence (P10275 whole entry, looked up) above
Target sequence in this assay (P40337 whole entry, looked up): as the sequence (P40337 whole entry, looked up) above
For series [16] the target is unchanged. The series can be described thus: PROTAC activity at AR/VHL in human VCaP cells assessed as induction of androgen receptor degradation at 0.03 to 3 uM measured for 12 hrs by Western blot analysis. In kind it is cell-based. The settings on record: dose 0.03-3 µM.
Target sequence in this assay (P10275 whole entry, looked up): as the sequence (P10275 whole entry, looked up) above
Target sequence in this assay (P40337 whole entry, looked up): as the sequence (P40337 whole entry, looked up) above
Series [17] has the same target. The series can be described thus: PROTAC activity at AR/VHL in human LNCaP cells assessed as induction of androgen receptor degradation measured for 12 hrs by Western blot analysis. It counts as cell-based.
For series [18] the target is unchanged. Kind of series: PROTAC activity at AR/VHL in human 22Rv1 cells assessed as induction of androgen receptor degradation measured for 12 hrs by Western blot analysis. It counts as cell-based.
Series [19] shares this target. The series can be described thus: PROTAC activity at AR/VHL in human VCaP cells assessed as induction of androgen receptor degradation measured for 12 hrs by Western blot analysis. It counts as cell-based.
Series [20] shares this target. The series can be described thus: PROTAC activity at AR/VHL in human MCF7 cells assessed as effect on AR level at 0.03 to 10 uM measured for 12 hrs by Western blot analysis. The settings on record: dose 0.03-10 µM. In kind it is cell-based.
Target sequence in this assay (P10275 whole entry, looked up): as the sequence (P10275 whole entry, looked up) above
Target sequence in this assay (P40337 whole entry, looked up): as the sequence (P40337 whole entry, looked up) above
Series [21] shares this target. Kind of series: PROTAC activity at AR/VHL in human MDA-MB-231 cells assessed as effect on AR level at 0.03 to 10 uM measured for 12 hrs by Western blot analysis. The settings on record: dose 0.03-10 µM. It counts as cell-based.
Series [22] shares this target. Kind of series: PROTAC activity at AR/VHL in human HEK293T cells assessed as effect on AR level at 0.03 to 10 uM measured for 12 hrs by Western blot analysis. It counts as cell-based. The settings on record: dose 0.03-10 µM.
For series [23] the target is unchanged. Kind of series: PROTAC activity at AR/VHL in human MCF7 cells assessed as effect on AR level measured for 12 hrs by Western blot analysis. It counts as cell-based.
Target sequence in this assay (P10275 whole entry): as the sequence (P10275 whole entry, looked up) above
Target sequence in this assay (P40337 whole entry): as the sequence (P40337 whole entry, looked up) above
The target is the same in series [24]. Kind of series: PROTAC activity at AR/VHL in human MDA-MB-231 cells assessed as effect on AR level measured for 12 hrs by Western blot analysis. It counts as cell-based.
Target sequence in this assay (P10275 whole entry): as the sequence (P10275 whole entry, looked up) above
Target sequence in this assay (P40337 whole entry): as the sequence (P40337 whole entry, looked up) above
For series [25] the target is unchanged. Kind of series: PROTAC activity at AR/VHL in human HEK293T cells assessed as effect on AR level measured for 12 hrs by Western blot analysis. It counts as cell-based.
Target sequence in this assay (P10275 whole entry): as the sequence (P10275 whole entry, looked up) above
Target sequence in this assay (P40337 whole entry): as the sequence (P40337 whole entry, looked up) above
Series [26] concerns LNCaP. Kind of series: Downregulation of PSA expression in human LNCaP cells measured up to 5 uM incubated for 12 hrs by RT-qPCR analysis. It counts as functional, cell-based.
Series [27] has as its system LNCaP. Kind of series: Downregulation of FKB51 expression in human LNCaP cells measured up to 5 uM incubated for 12 hrs by RT-qPCR analysis. In kind it is functional, cell-based.
Series [28] concerns LNCaP. The series can be described thus: Downregulation of TMPRSS2 expression in human LNCaP cells measured up to 5 uM incubated for 12 hrs by RT-qPCR analysis. In kind it is functional, cell-based.
Series [29] has as its target T1, von Hippel-Lindau disease tumor suppressor/Androgen receptor. The series can be described thus: PROTAC activity at AR/VHL in human 22Rv1 cells assessed as induction of androgen receptor degradation at 1 uM measured for 6 hrs in presence of VH032 by Western blot analysis. In kind it is cell-based.
Series [30] has the same target. Kind of series: PROTAC activity at AR/VHL in human LNCaP cells assessed as induction of androgen receptor degradation at 1 uM measured for 6 hrs in presence of VH032 by Western blot analysis. In kind it is cell-based.
For series [31] the target is unchanged. Kind of series: PROTAC activity at AR/VHL in human 22Rv1 cells assessed as induction of androgen receptor degradation at 1 uM measured for 6 hrs in presence of MG132 by Western blot analysis. In kind it is cell-based.
Series [32] shares this target. The series can be described thus: PROTAC activity at AR/VHL in human LNCaP cells assessed as induction of androgen receptor degradation at 1 uM measured for 6 hrs in presence of MG132 by Western blot analysis. It counts as cell-based.
For series [33] the target is unchanged. The series can be described thus: PROTAC activity at AR/VHL in human 22Rv1 cells assessed as induction of androgen receptor degradation at 1 uM measured for 6 hrs in presence of MLN4924 by Western blot analysis. In kind it is cell-based.
The target is the same in series [34]. The series can be described thus: PROTAC activity at AR/VHL in human LNCaP cells assessed as induction of androgen receptor degradation at 1 uM measured for 6 hrs in presence of MLN4924 by Western blot analysis. In kind it is cell-based.
Series [35] shares this target. Kind of series: PROTAC activity at AR/VHL in human 22Rv1 cells assessed as induction of androgen receptor degradation at 1 uM measured for 6 hrs in presence of PSMA ligand by Western blot analysis. In kind it is cell-based.
The target is the same in series [36]. The series can be described thus: PROTAC activity at AR/VHL in human LNCaP cells assessed as induction of androgen receptor degradation at 1 uM measured for 6 hrs in presence of PSMA ligand by Western blot analysis. In kind it is cell-based.
The target is the same in series [37]. The series can be described thus: PROTAC activity at AR/VHL in PSMA knockdown human LNCaP cells assessed as induction of androgen receptor degradation at 1 uM measured for 24 hrs by Western blot analysis. In kind it is cell-based.
Series [38] can be described thus: Drug accumulation in male BALB/c mouse tumor implanted with human 22Rv1 cells at 0.3 mmol/L, iv measured at 1 to 24 hrs by LC-MS/MS analysis. In kind it is ADME, organism-based, Neoplasm, CWR22R. The settings on record: in vivo, time 1-24 hrs.
The target in series [39] is T1, von Hippel-Lindau disease tumor suppressor/Androgen receptor. The series can be described thus: In vivo PROTAC activity at AR/VHL in BALB/c mouse xenografted with human LNCaP cells assessed as reduction in AR level in tumor at 1 mmol/L, iv measured for 3 days by Western blot analysis. In kind it is functional, organism-based. The settings on record: time 3.0 day.

Calls of active or inactive are those of the source. The rule behind the calls is not given here.

Consider `Cc1ncsc1-c1ccc(CNC(=O)[C@@H]2C[C@@H](O)CN2C(=O)[C@@H](NC(=O)CCCCCCCCCNC(=O)c2ccc(C(=O)N[C@H]3C(C)(C)[C@H](Oc4ccc(C#N)c(Cl)c4)C3(C)C)cc2)C(C)(C)C)cc1`, for which the result in [1] and in series [2] was Active.
Take `CNC(=O)c1ccc(N2C(=S)N(c3ccc(C#N)c(C(F)(F)F)c3)C(=O)C2(C)C)cc1F` [ENZALUTAMIDE]: in series [3], the inhibition in vivo at 10 mg/kg was 59.5%.
For `Cc1ncsc1-c1ccc([C@H](C)NC(=O)[C@@H]2C[C@@H](O)CN2C(=O)[C@@H](NC(=O)COCCCOCCNC(=O)C[C@@H]2N=C(c3ccc(Cl)cc3)c3c(sc(C)c3C)-n3c(C)nnc32)C(C)(C)C)cc1`, the outcome in series [4], in series [5], in series [6], in series [8], in [9] and in series [12] was Active. Also, in [7], the Activity result is “Toxic”. Further, the inhibition in vivo at 510 µM in series [10] worked out at 56.2%. For the same compound, in series [11], the inhibition in vivo at 1020 µM was 65.2%.
On to `Cc1ncsc1-c1ccc(CNC(=O)[C@@H]2C[C@@H](OC(=O)CCOCCOCCOCCC(=O)NCCCC[C@H](NC(=O)N[C@@H](CCC(=O)O)C(=O)O)C(=O)O)CN2C(=O)[C@@H](NC(=O)CCCCCCCCCNC(=O)c2ccc(C(=O)N[C@H]3C(C)(C)[C@H](Oc4ccc(C#N)c(Cl)c4)C3(C)C)cc2)C(C)(C)C)cc1`, for which, in [13], the remaining at 24 h was greater than 90%. Moreover, the outcome in series [14], in series [15], in series [16], in series [20], in series [21] and in series [22] was Active. Moreover, the result in [26], in series [27], in series [28], in series [29], in series [30] and in [31] was Active. For the same compound, the result in series [32], in [33], in series [34], in [35], in [36] and in series [37] was Active. Further, the outcome in series [39] was Active. Moreover, the DC50 in series [17] is 44.4 nM; in series [18], 50.2 nM; in [19], 21.9 nM; in series [23], greater than 5000 nM; in [24], greater than 5000 nM; in series [25], greater than 5000 nM. Further, the Activity result in series [17] (dose 0.03-10 µM), in series [18] (dose 0.03-10 µM) and in [19] (dose 0.03-10 µM) was “Dose-dependent-effect” throughout. In addition, the Drug uptake entry in [38] is listed as “Active”.
